# Test results taken from US8912178B2, “mTOR selective kinase inhibitors” (Xcovery Holdings Company, LLC, priority 2010, dated 2014).
# How the values were obtained:
# PI3Kδ = target: T1, PI3Kδ (Homo sapiens, UniProt O00329); experiment: Kinase competition binding assay (Ambit Biosciences), PI3Kδ; settings: tested at Ambit Biosciences; read-out: IC50 against PI3Kδ
# T1 construct: purchased Ambit Biosciences (contract assay)
# T1 sequence (O00329 1-1044): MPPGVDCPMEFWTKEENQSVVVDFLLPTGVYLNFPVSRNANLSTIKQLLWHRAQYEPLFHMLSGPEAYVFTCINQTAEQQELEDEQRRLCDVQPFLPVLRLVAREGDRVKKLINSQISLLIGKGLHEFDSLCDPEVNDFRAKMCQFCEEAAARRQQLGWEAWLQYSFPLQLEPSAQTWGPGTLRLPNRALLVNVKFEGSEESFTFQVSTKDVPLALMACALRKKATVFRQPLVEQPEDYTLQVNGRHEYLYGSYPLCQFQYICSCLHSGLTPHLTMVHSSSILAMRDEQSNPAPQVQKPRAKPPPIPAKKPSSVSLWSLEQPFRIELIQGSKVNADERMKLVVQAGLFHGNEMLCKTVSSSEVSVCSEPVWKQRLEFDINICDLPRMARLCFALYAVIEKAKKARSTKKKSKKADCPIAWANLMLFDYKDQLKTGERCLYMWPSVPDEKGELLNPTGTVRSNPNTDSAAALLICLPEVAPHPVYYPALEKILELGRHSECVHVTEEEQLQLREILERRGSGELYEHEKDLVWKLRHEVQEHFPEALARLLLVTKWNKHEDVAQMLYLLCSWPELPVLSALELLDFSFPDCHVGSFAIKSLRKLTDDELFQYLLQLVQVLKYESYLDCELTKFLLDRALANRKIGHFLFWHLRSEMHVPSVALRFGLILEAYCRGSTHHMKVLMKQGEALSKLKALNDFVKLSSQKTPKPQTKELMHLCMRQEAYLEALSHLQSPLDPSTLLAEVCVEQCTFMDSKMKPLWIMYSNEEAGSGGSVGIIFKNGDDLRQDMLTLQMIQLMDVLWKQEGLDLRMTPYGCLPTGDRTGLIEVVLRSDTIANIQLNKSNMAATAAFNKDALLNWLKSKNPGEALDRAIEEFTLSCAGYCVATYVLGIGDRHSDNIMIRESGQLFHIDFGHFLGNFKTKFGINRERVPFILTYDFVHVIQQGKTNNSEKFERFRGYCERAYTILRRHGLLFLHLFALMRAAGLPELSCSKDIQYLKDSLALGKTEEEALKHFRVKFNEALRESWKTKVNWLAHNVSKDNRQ
# Description: (§1) Assays are performed as described in Fabian et al. (2005) Nature Biotechnology, vol. 23, p. 329 and in Karaman et al. (2008) Nature Biotechnology, vol. 26, p. 127.
# (§2) Kinase assays. For most assays, kinase-tagged T7 phage strains are grown in parallel in 24-well blocks in an E. coli host derived from the BL21 strain. E. coli are grown to log-phase and are infected with T7 phage from a frozen stock (multiplicity of infection˜0.1) and are incubated with shaking at 32° C. until lysis (˜90 minutes). The lysates are centrifuged (6,000×g) and filtered ([…]) to remove cell debris. The remaining kinases are produced in HEK-293 cells and subsequently tagged with DNA for qPCR detection. Streptavidin-coated magnetic beads are treated with biotinylated small molecule ligands for 30 minutes at room temperature to generate affinity resins for kinase assays. The liganded beads are blocked with excess biotin and washed with blocking buffer (SeaBlock (Pierce), 1% BSA, 0.05% Tween 20, 1 mM DTT) to remove unbound ligand and to reduce non-specific phage binding. Binding reactions are assembled by combining kinases, liganded affinity beads, and test compounds in 1× binding buffer (20% SeaBlock, 0.17×PBS, 0.05% Tween 20, 6 mM DTT). Test compounds are prepared as 40× stocks in 100% DMSO and directly diluted into the assay. All reactions are performed in polypropylene 384-well plates in a final volume of 0.04 ml. The assay plates are incubated at room temperature with shaking for 1 hour and the affinity beads are washed with wash buffer (1×PBS, 0.05% Tween 20). The beads are then re-suspended in elution buffer (1×PBS, 0.05% Tween 20, 0.5 mM non-biotinylated affinity ligand) and are incubated at room temperature with shaking for 30 minutes. The kinase concentration in the eluates is measured by qPCR.
# (§3) Compounds were tested using the above assay at Ambit Biosciences (San Diego, Calif., USA).
# A549 cells = experiment: Proliferation assay (Alamar blue), A549; assay type: cell-based; settings: Homo sapiens, 48 h; A549, 46-h incubation + 2-h Alamar blue; read-out: IC50 against proliferation of A549 cells
# Description: (§4) Cells (U87-MG, A375, HeLa, A549, MCF7, and MCF7 ADR-res) are cultured in DMEM with 10% fetal bovine serum and streptomycin/penicillin. Solutions of the test compounds (1 μL) are spotted onto a 96-well culture plate, followed by addition of cells (1×10^4) in 100 μL. After 46-h incubation, 10 μL of Alamar blue reagent is added to each well. After 2-h, the excitation/emission wavelengths at 544/590 nm are measured using Fluostar.
# mTOR = target: T2, mTOR (Homo sapiens, UniProt P42345); experiment: Kinase competition binding assay (Ambit Biosciences), mTOR; settings: tested at Ambit Biosciences; read-out: IC50 against mTOR
# T2 construct: purchased Ambit Biosciences (contract assay)
# Description: as §1, §2, §3
# PI3Kβ = target: T3, PI3Kβ (Homo sapiens, UniProt P42338); experiment: Kinase competition binding assay (Ambit Biosciences), PI3Kβ; settings: tested at Ambit Biosciences; read-out: IC50 against PI3Kβ
# T3 construct: purchased Ambit Biosciences (contract assay)
# T3 sequence (P42338 whole entry): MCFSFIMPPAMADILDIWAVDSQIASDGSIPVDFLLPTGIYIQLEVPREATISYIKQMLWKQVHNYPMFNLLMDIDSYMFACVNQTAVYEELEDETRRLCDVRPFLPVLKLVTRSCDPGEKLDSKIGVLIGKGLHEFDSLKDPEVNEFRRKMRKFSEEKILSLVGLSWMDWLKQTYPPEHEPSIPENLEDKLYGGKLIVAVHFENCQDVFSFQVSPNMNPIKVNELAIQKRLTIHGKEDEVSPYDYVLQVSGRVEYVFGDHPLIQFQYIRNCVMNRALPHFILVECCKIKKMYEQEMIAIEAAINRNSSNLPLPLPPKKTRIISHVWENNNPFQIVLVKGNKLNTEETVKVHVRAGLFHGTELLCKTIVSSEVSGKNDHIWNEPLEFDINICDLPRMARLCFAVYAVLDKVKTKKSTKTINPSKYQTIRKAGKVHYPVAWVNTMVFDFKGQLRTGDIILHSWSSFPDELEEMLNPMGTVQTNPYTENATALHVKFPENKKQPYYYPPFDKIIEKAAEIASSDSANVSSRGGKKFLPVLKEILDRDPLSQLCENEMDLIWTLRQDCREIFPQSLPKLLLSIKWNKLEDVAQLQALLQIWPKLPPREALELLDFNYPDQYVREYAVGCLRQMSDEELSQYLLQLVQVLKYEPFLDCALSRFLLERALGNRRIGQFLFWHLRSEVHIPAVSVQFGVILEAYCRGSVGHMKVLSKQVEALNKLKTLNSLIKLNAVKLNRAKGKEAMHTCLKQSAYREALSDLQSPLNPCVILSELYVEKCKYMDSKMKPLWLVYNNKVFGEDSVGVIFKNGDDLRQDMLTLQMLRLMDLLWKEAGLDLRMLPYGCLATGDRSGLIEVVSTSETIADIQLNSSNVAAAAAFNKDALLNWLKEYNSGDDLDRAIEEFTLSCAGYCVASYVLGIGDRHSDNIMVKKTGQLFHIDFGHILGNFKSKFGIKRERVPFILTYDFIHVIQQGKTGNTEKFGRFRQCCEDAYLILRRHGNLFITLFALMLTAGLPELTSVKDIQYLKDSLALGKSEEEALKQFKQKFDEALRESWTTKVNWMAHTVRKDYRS
# Description: as §1, §2, §3
# PI3Kα = target: T4, PI3Kα (Homo sapiens, UniProt P42336); experiment: Kinase competition binding assay (Ambit Biosciences), PI3Kα; settings: tested at Ambit Biosciences; read-out: IC50 against PI3Kα
# T4 construct: purchased Ambit Biosciences (contract assay)
# T4 sequence (P42336 whole entry): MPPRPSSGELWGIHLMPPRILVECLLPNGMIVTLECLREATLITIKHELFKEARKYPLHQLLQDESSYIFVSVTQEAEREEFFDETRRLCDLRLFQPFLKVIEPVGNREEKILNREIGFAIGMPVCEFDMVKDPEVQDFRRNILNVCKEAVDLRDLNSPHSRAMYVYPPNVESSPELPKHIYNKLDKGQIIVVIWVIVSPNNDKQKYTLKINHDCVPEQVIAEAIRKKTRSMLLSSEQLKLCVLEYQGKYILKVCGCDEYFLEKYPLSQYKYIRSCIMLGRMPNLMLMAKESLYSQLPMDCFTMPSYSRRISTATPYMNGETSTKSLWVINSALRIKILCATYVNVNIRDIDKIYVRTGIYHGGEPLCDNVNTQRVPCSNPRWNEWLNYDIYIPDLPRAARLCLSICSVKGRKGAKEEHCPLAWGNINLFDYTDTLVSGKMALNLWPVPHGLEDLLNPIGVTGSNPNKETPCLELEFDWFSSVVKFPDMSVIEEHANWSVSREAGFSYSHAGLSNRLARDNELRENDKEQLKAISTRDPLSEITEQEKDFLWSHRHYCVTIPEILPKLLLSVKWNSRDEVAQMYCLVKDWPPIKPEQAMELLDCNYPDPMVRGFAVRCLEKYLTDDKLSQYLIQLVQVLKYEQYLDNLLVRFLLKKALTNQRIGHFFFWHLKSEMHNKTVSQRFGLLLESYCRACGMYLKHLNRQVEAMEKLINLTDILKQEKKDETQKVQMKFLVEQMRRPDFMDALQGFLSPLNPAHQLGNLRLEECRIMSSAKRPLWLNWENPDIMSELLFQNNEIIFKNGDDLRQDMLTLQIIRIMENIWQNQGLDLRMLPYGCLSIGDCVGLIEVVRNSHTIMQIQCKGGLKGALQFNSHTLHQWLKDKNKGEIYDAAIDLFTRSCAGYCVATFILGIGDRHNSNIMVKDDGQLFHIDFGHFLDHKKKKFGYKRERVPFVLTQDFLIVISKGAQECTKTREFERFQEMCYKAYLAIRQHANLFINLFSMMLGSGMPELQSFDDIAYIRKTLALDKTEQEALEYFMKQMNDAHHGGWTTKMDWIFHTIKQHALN
# Description: as §1, §2, §3
# U87-MG cells = experiment: Proliferation assay (Alamar blue), U87-MG; assay type: cell-based; settings: Homo sapiens, U-87 MG, 48 h, 46-h incubation + 2-h Alamar blue, read-out: IC50 against proliferation of U87-MG cells
# Description: as §4
# PI3Kγ = target: T5, PI3Kγ (Homo sapiens, UniProt P48736); experiment: Kinase competition binding assay (Ambit Biosciences), PI3Kγ; settings: tested at Ambit Biosciences; read-out: IC50 against PI3Kγ
# T5 construct: purchased Ambit Biosciences (contract assay)
# T5 sequence (P48736 whole entry): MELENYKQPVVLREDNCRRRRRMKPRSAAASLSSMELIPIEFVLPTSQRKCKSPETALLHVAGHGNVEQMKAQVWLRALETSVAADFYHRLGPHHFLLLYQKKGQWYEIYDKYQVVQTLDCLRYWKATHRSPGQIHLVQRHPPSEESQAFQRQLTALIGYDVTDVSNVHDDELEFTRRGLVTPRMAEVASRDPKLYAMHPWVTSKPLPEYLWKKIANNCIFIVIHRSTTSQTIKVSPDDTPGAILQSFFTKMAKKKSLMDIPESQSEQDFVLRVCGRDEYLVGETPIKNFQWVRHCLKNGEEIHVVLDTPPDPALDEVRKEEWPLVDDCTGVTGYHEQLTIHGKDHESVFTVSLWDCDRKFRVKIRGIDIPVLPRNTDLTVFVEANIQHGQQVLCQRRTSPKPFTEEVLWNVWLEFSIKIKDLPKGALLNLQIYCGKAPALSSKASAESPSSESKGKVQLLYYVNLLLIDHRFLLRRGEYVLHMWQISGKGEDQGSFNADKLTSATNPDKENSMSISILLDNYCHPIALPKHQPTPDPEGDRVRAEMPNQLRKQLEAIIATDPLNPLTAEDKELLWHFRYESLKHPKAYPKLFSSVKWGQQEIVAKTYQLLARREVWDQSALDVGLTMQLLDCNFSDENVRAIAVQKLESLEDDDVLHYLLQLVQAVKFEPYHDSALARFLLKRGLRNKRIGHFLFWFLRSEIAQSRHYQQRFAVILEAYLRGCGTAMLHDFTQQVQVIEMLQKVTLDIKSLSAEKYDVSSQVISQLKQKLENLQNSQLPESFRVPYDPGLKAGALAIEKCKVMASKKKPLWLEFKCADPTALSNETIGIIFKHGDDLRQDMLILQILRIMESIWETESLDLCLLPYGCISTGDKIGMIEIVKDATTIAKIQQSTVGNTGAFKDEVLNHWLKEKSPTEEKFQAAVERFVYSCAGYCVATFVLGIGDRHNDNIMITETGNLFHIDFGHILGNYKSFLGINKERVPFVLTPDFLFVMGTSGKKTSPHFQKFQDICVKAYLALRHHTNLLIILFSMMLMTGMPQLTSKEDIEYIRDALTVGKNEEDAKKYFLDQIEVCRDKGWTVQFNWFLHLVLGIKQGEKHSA
# Description: as §1, §2, §3
SMILES,IC50 (PI3Kδ),IC50 (A549 cells),IC50 (mTOR),IC50 (PI3Kβ),IC50 (PI3Kα),IC50 (U87-MG cells),IC50 (PI3Kγ)
"CCNC(=O)Nc1ccc(-c2nc(N3CCOCC3)nc3c2cnn3CC(C)(C)O)cc1 [Example 1, 1-ethyl-3-[4-[1-(2-hydroxy-2-methyl-propyl)-6-morpholino-pyrazolo[3,4-d]pyrimidin-4-yl]phenyl]urea]",> 100 nM,< 1000 nM,< 110 nM,> 100 nM,> 100 nM,< 1000 nM,> 100 nM
"CNC(=O)Nc1ccc(-c2nc(N3CCOCC3)nc3c2cnn3CC(C)(C)O)cc1 [Example 2, 1-[4-[1-(2-hydroxy-2-methyl-propyl)-6-morpholino-pyrazolo[3,4-d]pyrimidin-4-yl]phenyl]-3-methyl-urea]",> 100 nM,< 1000 nM,< 110 nM,> 100 nM,> 100 nM,< 1000 nM,> 100 nM
"CNC(=O)Nc1ccc(-c2nc(N3CCOCC3)nc3c2cnn3C(C)C)cc1 [Example 3, 1-[4-(1-isopropyl-6-morpholino-pyrazolo[3,4-d]pyrimidin-4-yl)phenyl]-3-methyl-urea]",> 100 nM,,< 110 nM,> 100 nM,> 100 nM,,> 100 nM
"CNC(=O)Nc1ccc(-c2nc(N3CCOCC3)nc3c2cnn3C2CCN(C(=O)OC)CC2)cc1 [Example 6, methyl 4-[4-[4-(methylcarbamoylamino)phenyl]-6-morpholino-pyrazolo[3,4-d]pyrimidin-1-yl]piperidine-1-carboxylate]",> 100 nM,,< 110 nM,> 100 nM,> 100 nM,,> 100 nM
"CNC(=O)Nc1ccc(-c2nc(N3CCOCC3)nc3c2cnn3C2CCN(C(=O)CO)CC2)cc1 [Example 9, 1-[4-[1-[1-(2-hydroxyacetyl)-4-piperidyl]-6-morpholino-pyrazolo[3,4-d]pyrimidin-4-yl]phenyl]-3-methyl-urea]",,< 1000 nM,,,,< 1000 nM,
"CNC(=O)Nc1ccc(-c2nc(N3CCOCC3)nc3c2cnn3C2CCN(C(=O)[C@H](C)O)CC2)cc1 [Example 10, 1-[4-[1-[1-[(2S)-2-hydroxypropanoyl]-4-piperidyl]-6-morpholino-pyrazolo[3,4-d]pyrimidin-4-yl]phenyl]-3-methylurea]",,< 1000 nM,,,,< 1000 nM,
"CNC(=O)Nc1ccc(-c2nc(N3CCOCC3)nc3c2cnn3C2CCN(C(=O)COC)CC2)cc1 [Example 11, 1-[4-[1-[1-(2-methoxyacetyl)-4-piperidyl]-6-morpholino-pyrazolo[3,4-d]pyrimidin-4-yl]phenyl]-3-methyl-urea]",,< 1000 nM,,,,< 1000 nM,
"CNC(=O)Nc1ccc(-c2nc(N3CCOCC3)nc3c2cnn3C2CCOCC2)cc1 [Example 13, 1-methyl-3-[4-(6-morpholino-1-tetrahydropyran-4-yl-pyrazolo[3,4-d]pyrimidin-4-yl)phenyl]urea]",> 100 nM,< 1000 nM,< 110 nM,> 100 nM,> 100 nM,< 1000 nM,> 100 nM
"CNC(=O)Nc1ccc(-c2nc(N3CC4CCC(C3)O4)nc3c2cnn3C2CCOCC2)cc1 [Example 14, 1-methyl-3-[4-[6-(8-oxa-3-azabicyclo[3.2.1]octan-3-yl)-1-tetrahydropyran-4-yl-pyrazolo[3,4-d]pyrimidin-4-yl]phenyl]urea]",,< 1000 nM,,,,< 1000 nM,
"CNC(=O)Nc1ccc(-c2nc(N3CCOC[C@@H]3C)nc3c2cnn3C2CCOCC2)cc1 [Example 15, 1-methyl-3-[4-[6-[(3S)-3-methylmorpholin-4-yl]-1-tetrahydropyran-4-yl-pyrazolo[3,4-d]pyrimidin-4-yl]phenyl]urea]",> 100 nM,< 1000 nM,< 110 nM,> 100 nM,> 100 nM,< 1000 nM,> 100 nM
"CNC(=O)Nc1ccc(-c2nc(N3CCOC[C@@H]3C)nc3c2cnn3CC(C)(C)O)cc1 [Example 16, N-{4-[6-((3S)-3-methylmorpholin-4-yl)-1-(2-hydroxy-2-methylpropyl)pyrazolo[4,5-e]pyrimidin-4-yl]phenyl}(methylamino)carboxamide]",> 100 nM,,< 110 nM,> 100 nM,> 100 nM,,> 100 nM
"CNC(=O)Nc1ccc(-c2nc(N3CCOC[C@H]3C)nc3c2cnn3CC(C)(C)O)cc1 [Example 17, N-{4-[6-((3R)-3-methylmorpholin-4-yl)-1-(2-hydroxy-2-methylpropyl)pyrazolo[4,5-e]pyrimidin-4-yl]phenyl}(methylamino)carboxamide]",> 100 nM,,< 110 nM,> 100 nM,> 100 nM,,> 100 nM
"CNC(=O)Nc1ccc(-c2nc(N3CCOCC3)nc3c2cnn3C2CCC(CO)CC2)cc1 (stereo not shown) [Example 20, N-(4-{1-[4-(hydroxymethyl)cyclohexyl]-6-morpholin-4-ylpyrazolo[4,5-e]pyrimidin-4-yl}phenyl)(methylamino)carboxamide]",,< 1000 nM,,,,< 1000 nM,
"CNC(=O)Nc1ccc(-c2nc(N3CCOCC3)nc3c2cnn3C2CCC(O)CC2)cc1 (stereo not shown) [Example 22, N-{4-[1-(4-hydroxycyclohexyl)-6-morpholin-4-ylpyrazolo[4,5-e]pyrimidin-4-yl]phenyl}(methylamino)carboxamide]",,< 1000 nM,,,,< 1000 nM,
"CNC(=O)Nc1ccc(-c2nc(N3CCOCC3)nc3c2cnn3C2CCCC2)cc1 [Example 24, N-[4-(1-cyclopentyl-6-morpholin-4-ylpyrazolo[4,5-e]pyrimidin-4-yl)phenyl](methylamino)carboxamide]",,< 1000 nM,,,,< 1000 nM,
"CNC(=O)Nc1ccc(-c2nc(N3CCOC[C@@H]3C)nc3c2cnn3C2CCCC2)cc1 [Example 25, N-{4-[6-((3S)-3-methylmorpholin-4-yl)-1-cyclopentylpyrazolo[4,5-e]pyrimidin-4-yl]phenyl}(methylamino)carboxamide]",,< 1000 nM,,,,< 1000 nM,
